Reference: patent publication US20100081630A1, “Heparin Compositions and Selectin Inhibition” (University of California, priority 2005, published 2010)

What was measured:
[1] = incorporated into liposomes; cited from earlier work
[2] = Plasma anti-Xa levels after subcutaneous heparin dosing; format: in vivo; settings: mice
Experimental: Anti-Xa levels were measured in plasma from multiple mice, 30 min after each mouse received a single “1×” or “3×” subcutaneous dose of various heparins. Each open circle represents one mouse and horizontal bars represent mean values.
Titrating Heparin Dosage via Plasma Anti-Xa Levels: Mice were injected subcutaneously with 100 ul of UFH, TINZ, or FOND diluted in PBS, at various final concentrations. Thirty minutes later, blood was collected by cardiac puncture into 1 cc syringe containing 30 ul 10 mM EDTA. Samples were centrifuged twice at 2,000 rcf at 24° C. to collect the plasma, which was stored at −80° C. until analysis for anti-Xa activity. […] The resulting chromophore was measured at 405 nm. Plasma heparin levels were calculated in anti-Xa units/ml by comparing against a standard curve of heparin-spiked mouse plasma samples. Standards and samples were analyzed in triplicate. […]
Pharmacokinetic Studies in Mice to Normalize Heparin Dosing. […] Therapeutic levels for patients treated with heparin for venous thromboembolism are ˜1 anti-factor Xa unit/ml for LMWHs, typically measured at 3-4 hours after injection. […] Plasma anti-Xa levels were analyzed 30 minutes after subcutaneous delivery, which is when the tumor cells would be injected into the vasculature in the planned metastasis experiments. […] Single heparin doses were increased from “1×” to “3×” dosing, and analyzed the anti-Xa levels (FIG. 2B). […]

B16F1 cells = assay: Melanoma experimental metastasis assay; format: in vivo, mouse; settings: 1× dose s.c. 30 min before i.v. B16F1 cells; day 17
Experimental: FIG. 4 depicts heparins with selectin-inhibitory activity that inhibit metastasis of melanoma cells. Mice were injected subcutaneously with “1×” heparin (A) or “3×” heparin (B) (or PBS as a control), and 30 minutes later were injected intravenously with B16F1 cells. After 17 days, mice were euthanized, lungs perfused with formalin through the trachea and then allowed to fix in formalin for a minimum of 24 hours. Metastasis was quantified by measuring lung weight, which correlated well with the physical appearance of the lungs, documented by photography (representative pictures are shown below quantification). Open circles each represent one mouse and horizontal bars represent mean lung weights. P-values were determined by a Student's T-test, assuming two-tailed, unequal distribution.
Melanoma Experimental Metastasis Assay: Mice were injected with heparin and 500,000 B16F1 cells using the protocol described for the carcinoma metastasis assay. […] Lung weights were determined by removing the lungs from formalin, briefly setting them on filter paper to remove excess liquid, and then weighing them on a Sartorius analytical scale.
Heparin Inhibition of Melanoma Metastasis is Also Dependent on Selectin-Inhibitory Activity. […] Seventeen days following injection, the lungs were excised and evaluated for the presence of metastatic foci. […]

tumor cells = settings: cited from earlier work
[3] = hirudin 10 mg/kg, at the time of tumor cell injection; almost all above limits of detection; cited from earlier work

In the case of `CCCCCCCCCCCCCCCC(=O)OCn1ccnc1` [PMI, 1-(palmitoyloxymethyl)imidazole], the “apparent pKa” value [1] is given as 5.12.
With `CO[C@H]1O[C@H](COS(=O)(=O)O)[C@@H](O[C@@H]2O[C@@H](C(=O)O)[C@@H](O[C@H]3O[C@H](COS(=O)(=O)O)[C@@H](O[C@@H]4O[C@H](C(=O)O)[C@@H](O[C@H]5O[C@H](COS(=O)(=O)O)[C@@H](O)[C@H](O)[C@H]5NS(=O)(=O)O)[C@H](O)[C@H]4O)[C@H](OS(=O)(=O)O)[C@H]3NS(=O)(=O)O)[C@H](O)[C@H]2OS(=O)(=O)O)[C@H](O)[C@H]1NS(=O)(=O)O` [FOND, Fondaparinux] the “mean plasma anti-Xa level” value ([2]; 30 min after single subcutaneous 1× dose, range meant: therapeutic ~1 anti-factor Xa unit/ml) was “within this range”, the “plasma anti-Xa level” value ([2]; 30 min after single subcutaneous 3× dose) was “at or above the accepted range for clinical anticoagulation” and the “metastasis (lung weight)” value (B16F1 cells) was “no effect”.
For hirudin, the “pulmonary arrest of tumor cells” value (tumor cells; hirudin 10 mg/kg twenty minutes prior to tumor cell injection) is given as “decreased pulmonary arrest of tumor cells”, the “formation of metastatic foci” value (tumor cells; hirudin 20 mg/kg before, 4 h after, then every other day for 10 days, i.v. tumor cells) is given as “significant decrease in formation of metastatic foci” and the “clotting time in activated partial thromboplastin time test” value [3] is given as > 300 s.
